Patent publication US12629384B2, “Use of 8,9-dihydrocannabidiol compounds” (The Regents of the University of California, priority 2019, dated 2026)

Legend:
[1] = in contrast to CBD; cited from earlier work
murine macrophages = details: consistent with CBD; cited from earlier work
rodent behavior [2] = assay: open field test, spontaneous locomotor activity; format: in vivo, rat
Experimental: (§1) 12 adult male Sprague Dawley rats were divided at random into two groups of 6 animals each and received either vehicle (Kolliphor RH-40, dmso, 0.9% w/v saline, 1:2:7) or vehicle plus H2CBD (200 mg kg^−1), administered by intraperitoneal injection. The vehicle differed in this case from the anti-seizure study to avoid the potentially confounding effect of alcohol. The number of animals was also limited to the lowest population necessary to establish an effect at the maximum dosage of drug. At 45 minutes post vehicle and drug injections, rats were placed in the center of the EPM and time spent on the open versus closed arms of the maze was recorded. After an interval of two weeks, the same 12 rats were again divided at random into two groups of 6 animals each and dosed as above. Spontaneous locomotor activity was measured 45 minutes after injection by placing the animals in the center of a 16″×16″ arena. Free movement was allowed for 30 minutes and recorded using an automated activity monitoring system.

[3] = blood and brain concentrations post-mortem by HPLC; format: in vivo, rat; details: samples 90 minutes after administration
Experimental: Assessment of bioanalytes: Chemicals and reagents. 4,4-Dichlorodiphenyltrichloroethane (DDT, CAS: 50-29-3) was used as the internal analytical standard (IS). HPLC grade n-hexane, acetonitrile, water and ascorbic acid were purchased from Sigma Aldrich (UK) and Fisher Scientific.
Analysis of plasma and brain samples: Stock standard solutions of CBD, H2CBD and DDT were prepared in acetonitrile (5 mg/ml and 1 mg/mL) and stored at −20° C. until use. These were further diluted in acetonitrile:water (62:38), to achieve calibration concentrations of 0.1, 0.2, 0.5, 1.5, 10 μg/mL. Plasma samples were prepared for HPLC using a previously validated method. Briefly, DDT ([…]) was added to 150 μL of rat plasma sample as internal standard and plasma proteins were precipitated by the addition of 600 μL of ice cold acetonitrile followed by water (600 μL), with 1 min vortexing between additions. n-Hexane (3 mL) was added to each tube and following a 5 min vortex, tubes were centrifuged at 1160×g for 15 min at 10° C. and the upper organic layer was carefully decanted by glass pipette and retained. The organic layer was evaporated to dryness under a stream of nitrogen at room temperature and reconstituted in 150 μL of the mixture of acetonitrile and water (62:38) prior to HPLC analysis.
For brain analysis, brains were weighed and 1.5× ice-cold solvent (90% acetonitrile; 10% water; 0.1% ascorbic acid) (w/v) was added followed by homogenization for 1 min. DDT (50 μg/ml) was added to each homogenized brain tissue as internal standard, samples were mixed and allowed to equilibrate overnight at −20° C. Samples were then centrifuged at 3500 rpm for 15 min and the top layer retained. Samples were dried by SpeedVac concentrator at room temperature (Savant SPD131DDA, ThermoFisher Scientific, UK) and reconstituted in 150 μL of the mixture of acetonitrile and water (62:38) for HPLC analysis.
HPLC analysis: An Agilent 1200 series HPLC (Hewlett-Packard, Palo Alto, CA, USA) equipped with a photodiode array detector was used for analysis. 30 μl of all samples were injected and separation was achieved using an ACE C18-PFP 150 mm×4.6 mm, 3 μm particle size column (Hichrom Ltd., Reading, UK), protected by an ACE C18-PFP […] guard cartridge. The mobile phase was a mixture of acetonitrile and water in a ratio of 62:38 (v/v). The flow rate was set at 1 mL/min and column temperature was maintained at 55° C. The absorbance of all compounds of interest (CBD and DH-CBD) was monitored at 220 nm.
(§2) Statistics: Statistical procedures were performed using GraphPad Prism 7 (GraphPad Software, Inc., San Diego, CA, USA).

cytochrome P450 = details: hepatic microsomal metabolism; consistent with CBD; cited from earlier work
[4] = test system: PTZ-induced generalised seizures; assay: acute PTZ-induced generalised seizures in rat (antiseizure study); format: in vivo; details: for maximum seizure severity, median (IQR) / percentage of animals that exhibited tonic-clonic seizures: 200 mg kg^-1 i.p. 1 h before PTZ 85 mg kg^-1; for maximum seizure severity, median (IQR): vehicle median 5, P<0.001 vs vehicle; for percentage of animals that exhibited tonic-clonic seizures: vs vehicle treated group, P<0.05
Experimental: Animals: Male, Wistar Han rats (70-110 g; Harlan, Bicester, UK) were housed on a 12 h light-dark cycle, with food and water available ad libitum. All experiments were conducted in accordance with the UK Animals (Scientific Procedures) Act, 1986 and ARRIVE guidelines for reporting experiments involving animals; 60 rats were used in total.
Drug administration: Animals were randomly divided into 5 groups of 12 animals per group and received either vehicle (ethanol, Cremophor EL and saline (0.9% w/v NaCl), 2:1:17), a positive control (cannabidiol; CBD; 200 mg kg^−1; Sigma-Aldrich, UK) or 8,9-dihydrocannabidiol (H2CBD; 50, 100 or 200 mg kg^−1) via i.p. injection 1 h prior to administration of the convulsant agent to achieve brain cannabinoid Tmax. The convulsant agent pentylenetetrazole (PTZ; 85 mg kg^−1 in 0.9% w/v NaCl) was administered i.p. 1 h after drug or vehicle treatment. Seizure activity was video recorded for 30 min and video records blinded before offline review and coding using a modified Racine scale (0, normal behaviour; 0.5, abnormal behaviour; 1, isolated myoclonic jerk; 2, atypical clonic seizure; 3, bilateral forelimb clonus; 3.5, bilateral forelimb clonus with body twist; 4, tonic-clonic seizure with suppressed tonic phase; 5, fully developed tonic-clonic seizure).
as §2
In the present study, 60 male, Wistar Han rats were randomly divided into 5 groups of 12 animals each and received either vehicle (ethanol, Cremophor EL, 0.9% w/v saline; 2:1:17), vehicle plus a positive control (CBD; 200 mg kg^−1), or vehicle plus H2CBD (50, 100, or 200 mg kg^−1) via intraperitoneal injection one hour prior to administration of the convulsant agent pentylenetetrazole (PTZ; 85 mg kg^−1 in 0.9% w/v saline).

rodent behavior [5] = assay: EPM test; format: in vivo, rat; details: 200 mg kg^-1 i.p., 45 minutes post injection; drug vs vehicle; p=0.49
Experimental: as §1

[6] = simulated gastric fluid, within one hour; cited from earlier work

Compound	sedative activity [1]	antioxidant activity (murine macrophages)	horizontal distance traveled (rodent behavior [2]; 200 mg kg^-1 i.p., 30 min from 45 minutes after injection, drug vs vehicle, P=0.95)	time in the arena center (rodent behavior [2]; 200 mg kg^-1 i.p., 30 min from 45 minutes after injection, drug vs vehicle, p=0.14)	vertical activity (rodent behavior [2]; 200 mg kg^-1 i.p., 30 min from 45 minutes after injection, drug vs vehicle, p=0.25)	behavioral effects (EPM and open field overall) (rodent behavior [2]; high dosage, 200 mg kg^-1)	blood concentration vs vehicle treated group ([3]; 100 mg/kg i.p., P<0.05)	blood concentration vs vehicle treated group ([3]; 200 mg/kg i.p., P<0.01)	brain tissue concentration vs vehicle treated group ([3]; 200 mg/kg i.p., P<0.01)	effect on cytochrome P450 (cytochrome P450)	maximum seizure severity, median (IQR) [4]	percentage of animals that exhibited tonic-clonic seizures [4]	anticonvulsant action ([4]; 50, 100, 200 mg kg^-1 i.p., maximal protective effect comparable to matching dose of CBD)	percent time spent on the open arms (rodent behavior [5])	degradation mainly to Δ8- and Δ9-THCs [6]
CCCCCc1cc(O)c([C@@H]2C=C(C)CC[C@H]2C(C)C)c(O)c1 (relative stereo) [Example H2CBD, 2-(6-Isopropyl-3-methylcyclohex-2-en-1-yl)-5-pentylbenzene-1,3-diol]	little if any evidence of sedative activity	antioxidant activity	no statistically significant differences	no statistically significant differences	no statistically significant differences	no measurable behavioral effects	significant concentrations	significant concentrations	significant concentrations	inhibitory effect	2 (0.25-4.25 IQR) Racine scale	significantly fewer animals	dose-dependent anticonvulsant action	No statistically significant differences	–
C=C(C)[C@@H]1CCC(C)=C[C@H]1c1c(O)cc(CCCCC)cc1O [CBD, cannabidiol]	–	–	–	–	–	–	–	–	significant concentrations	–	2 (0.25-3.75 IQR) Racine scale	significantly fewer animals	–	–	nearly complete degradation
